Source: patent US7709600B2, “Interaction between the VHL tumor suppressor and hypoxia inducible factor, and assay methods relating thereto” (Isis Innovation Limited, priority 1999, dated 2010)
Like-named read-outs stand apart in the source and are kept apart here.

Legend:
HIF-1α = assay: In vitro ubiquitylation assay for HIF-1α; format: biochemical, human
Method: To test the hypothesis that pVHL is a necessary component of a ubiquitin ligase complex recognising HIF-α we developed an in vitro ubiquitylation assay for HIF-1α. In this assay, cell extracts (initially from Cos-7) were incubated with [^35S]labelled HIF-1α prepared in vitro in reticulocyte lysates. This was used as substrate in reactions with different combinations of extract, an ATP-regenerating system, ubiquitin aldehyde, and methylated ubiquitin. Reactions were incubated at 30° C. for 270 minutes before analysis by SDS-PAGE.
Incubation with extract alone converted the HIF-1α substrate to a slower migrating form, an effect which was enhanced by an ATP-regenerating system, and was prevented by addition of the protein kinase inhibitor 2-aminopurine. […] This assignment was confirmed by enhancement with addition of ubiquitin aldehyde, an isopeptidase inhibitor that prevents the breakdown of ubiquitin conjugates.
An experiment similar to that of section (h) above was performed but with the omission of ubiquitin aldehyde. pVHL was generated by in vitro transcription translation, and HIF-1α was also generated in reticulocyte lysate in the presence or absence of 100 μM Fe2+ and Fe3+. […] Thus assays of the invention may be used for the identification of compounds acting at a point distal to the HIF-pVHL interaction (i.e. not altering binding but interfering with tagging or destruction). It also provides further evidence for modifications of HIF influencing its ability to bind pVHL. […]
In vitro ubiquitylation assay. […] Aliquots were removed at indicated times, mixed with SDS sample buffer and analysed by SDS-PAGE and autoradiography. Gels were quantitated using a Storm 840 PhosphorImager (Molecular Dynamics).

pVHL-HIF-1α interaction [1] = biological target: pVHL-HIF-1α interaction (Homo sapiens, UniProt P40337+Q16665); assay: pVHL interaction with HIF-1α sequences translated in reticulocyte lysate in the presence of metal ions; format: binding
[2] = tested on: pVHL interaction with HIF-1α and HIF-2α; assay: Anti-pVHL immunoprecipitation of RCC4/VHL cell extracts, immunoblot for HIF α subunits; settings: treated RCC4/VHL cells, compared with hypoxic cells
pVHL/HIF-1 complex = pVHL/HIF-1 complex (Homo sapiens, UniProt P40337+Q16665); assay: EMSA / anti-pVHL supershift of the HIF-1 DNA binding complex from treated RCC4/VHL cells; settings: for HIF-1 complex species seen in EMSA: RCC4/VHL cells cultured four hours, 100 μM
pVHL-HIF-1α interaction [3] = assay: pVHL interaction with HIF-1α sequences translated in reticulocyte lysate in the presence of metal ions; format: binding, human; settings: subsequences 556-574, 549-574, 556-582, 549-582; 100 μM Fe2+ and 100 μM Fe3+
[4] = full HIF-1α, 100 μM ion during translation

Molecule	interaction of pVHL with HIF-1α translated in the presence of the ion (pVHL-HIF-1α interaction [1]; [4])	HIF-1α and HIF-2α contained in anti-pVHL immunoprecipitates [2]	HIF-1 complex species seen in EMSA (pVHL/HIF-1 complex)	other results
Nc1ncc2[nH]cnc2n1 [2-aminopurine]				conversion of HIF-1α substrate to a slower migrating form (phosphorylation) (HIF-1α; Cos-7 cell extract, 30° C.): prevented
[Cl-].[Cl-].[Co+2] [cobalt, cobaltous chloride]	diminishes	neither protein was contained	only the faster mobility HIF-1 complex	
CC(=O)N(O)CCCCCNC(=O)CCC(=O)N(O)CCCCCNC(=O)CCC(=O)N(O)CCCCCN [desferrioxamine]		neither protein was contained	only the faster mobility HIF-1 complex	pVHL/HIF-1 complex forming (pVHL/HIF-1 complex; treatment four hours prior to hypoxia): prevented
[Ni+2] [nickel]				interaction of pVHL with HIF-1α translated in the presence of the ion (pVHL-HIF-1α interaction [1]): diminishes
iron	enhances			amount of interaction of pVHL with HIF-1 subsequences (pVHL-HIF-1α interaction [3]): substantial increase; ubiquitylation of HIF-1α produced in the presence of the ions (HIF-1α; HIF-1α generated in reticulocyte lysate with 100 μM Fe2+ and Fe3+, ubiquitin aldehyde omitted): Enhanced ubiquitylation
ubiquitin aldehyde				generation of high molecular weight polyubiquitylated HIF-1α species (HIF-1α; Cos-7 cell extract, 30° C., 270 minutes): enhancement
